Experimental data taken from patent US4645779A, “Dialkylaminoalkoxybenzylalcohol derivatives, process for their preparation and pharmaceutical compositions containing them” (Richter Gedeon Vegyeszeti Gyar Rt, priority 1982, dated 1987).

Legend:
[1] = in vivo; cited from earlier work
[2] = in vivo; cited from earlier work; remark: listed apart in the source
[3] = test system: Hann.-Wistar rats; assay: Effect on ethanolic narcosis period (righting reflex); format: in vivo, rat; details: 1 h before ethanol 3.5 g./kg. i.p., control = 100 ± 4.0, n=10
Protocol: The effect of the compounds according to the invention on ethanolic narcosis period was tested on Hann.-Wistar rats of both sexes, weighing 160 to 180 g. each. The animals were fasted for 16 hours prior to treatment. Groups of ten were then treated with various doses of the compounds of the formula (I) orally. One hour after treatment the animals were given a 3.5 g./kg. dose of ethanol, intraperitoneally. The narcosis period of the animals was measured from the elapse of the righting reflex until a spontaneous correction of the body position. The average of the narcosis period and the standard error were calculated, and the results are given in percentage of the control in Table 1. Abbreviations: x±S.E.=means value ± standard error n=number of animals The control group was treated with a placebo and a […]. dose of ethanol. Narcosis period of the control: 88.5±3.54x±S.E. minutes

[4] = Acute toxicity, single oral dose, 14 days observation; format: in vivo, rat; details: rat, in vivo, po, 500 mg./kg. p.o., n=10, read-out: Perished animals (%)
Protocol: (§1) The acute toxicity of the compounds provided by the invention was determined on Wistar rats of both sexes, each weighing 160 to 180 g., which had been treated with a single 500 mg./kg. dose of the test compounds, orally. […] In Table 3 the percentage of the perished animals is given.

[5] = test system: mice; details: cited from earlier work
[6] = test system: Wistar rats; assay: Acute toxicity, single oral dose, 14 days observation; format: in vivo, rat; details: 500 mg./kg. p.o., n=10
Protocol: as §1

[7] = test system: BALB/c mice; assay: Effect on ethanolic locomotoric hyperactivity / locomotor activity (Animex BSE motimeter); format: in vivo, mouse; details: n=15
Protocol: The effect of the compounds provided by the invention on ethanolic locomotoric hyperactivity was tested on BALB/c mice of both sexes, each weighing 16 to 18 g. The test materials were administered to groups of 15 in a 40 mg./kg. oral dose, one hour before administering a placebo orally or a 2 g./kg. dose of ethanol intraperitoneally. The control animals were treated with a placebo. The locomotor activity of the animals was measured for two hours, using an Animex BSE motimeter. The results are shown as a Table 2, in percentage of the control.
°Control (treated with placebo): ^-x ± S.E. = 3118.3 ±
305.6 total motion/2 hours

## Cn1c(=O)c2c(ncn2C)n(C)c1=O [caffeine]
[1]
  narcotizing effect of alcohol (in words): moderate the narcotizing effect of alcohol
[2]
  motoric incoordination (ataxia) (in words): prolong the motoric incoordination (ataxia)

## CCCN(CCC)CCCOc1ccc(C(O)(CC)c2ccccc2OC)cc1 (stereo not drawn) [A, α-ethyl-α-(2-methoxyphenyl)-4-[3-(di-n-propylamino)-propoxy]-benzylalcohol]
[3]; 5.0 mg./kg. orally
  Ethanolic narcosis period, control ± S.E. %: 60 ± 10.1%
[3]; 10.0 mg./kg. orally
  Ethanolic narcosis period, control ± S.E. %: 50 ± 6.9%
[4]
  mortality at 336 h: 0%

## CC(N)(Cc1ccc(O)cc1)C(=O)O (stereo not drawn) [α-methyl-paratyrosine]
[5]; in the effective dose range
  spontaneous locomotoric activity (in words): a decrease of the spontaneous locomotoric activity
[5]; mice
  ethanolic locomotoric hyperactivity (in words): normalizes the ethanolic locomotoric hyperactivity

## N[C@@H](CS)C(=O)O [L-cysteine, reference compound]
[3]; 500.0 mg./kg. orally
  Ethanolic narcosis period, control ± S.E. %: 63 ± 4.2%
[1]
  alcoholic intoxication, i.e. narcosis period (in words): shortened
[4]
  mortality at 336 h: 0%

## CCC(O)(c1ccc(OCCN(C(C)C)C(C)C)cc1)c1ccccc1C(F)(F)F (stereo not drawn) [Compound C, α-ethyl-α-(2-trifluoromethylphenyl)-4-[3-(di-isopropylamino)-ethoxy]-benzylalcohol]
[3]; 40.0 mg./kg. orally
  Ethanolic narcosis period, control ± S.E. %: 62 ± 5.1%
[6]
  Perished animals (%): 0%

## CC(N)Cc1ccccc1 (centres unmarked) [amphetamine]
[1]
  narcotizing effect of alcohol (in words): moderate the narcotizing effect of alcohol
[2]
  motoric incoordination (ataxia) (in words): prolong the motoric incoordination (ataxia)

## CCCN(CCC)CCCOc1ccc(C(O)(CC)c2cccc(Cl)c2)cc1 (stereo not drawn) [B, α-ethyl-α-(3-chlorophenyl)-4-[3-(di-n-propylamino)-propoxy]-benzylalcohol]
[3]; 0.3 mg./kg. orally
  Ethanolic narcosis period, control ± S.E. %: 65 ± 6.8%
[3]; 1.0 mg./kg. orally
  Ethanolic narcosis period, control ± S.E. %: 53 ± 4.7%
[3]; 10.0 mg./kg. orally
  Ethanolic narcosis period, control ± S.E. %: 49 ± 2.8%
[7]; B + ethanol 2000 mg./kg. i.p., 40 mg./kg. oral 1 h before, control = 100 ± 9.8, ethanol + placebo = 170 ± 11.8
  Locomotor activity total motion/2 hour (%): 70 ± 8.4%
[7]; B + placebo (no ethanol), 40 mg./kg. oral, control = 100 ± 9.8
  Locomotor activity total motion/2 hour (%): 108 ± 13.3%
[4]
  mortality at 336 h: 0%
